Key:
[1] = target: T1, purified and unphosphorylated T315I Abl kinase domain (ABL_T315I_0P) (Mus musculus, UniProt P00520, T315I); test: c-Abl T315I (unphosphorylated kinase domain) pyruvate kinase/lactate dehydrogenase coupled enzyme assay; type: biochemical; conditions: 10 μM ATP
T1 construct: The c-Abl T3151 KD (kinase domain) was purified as follows; Met-Ser-Leu (vector-derived residues) (N); made in house; host or cells: E. coli BL21(DE3) strains (Codon+RIL, or pSA0145 for the lambda phosphatase co-expression plasmid)
T1 sequence (P00520 242-493 T315I limits assumed): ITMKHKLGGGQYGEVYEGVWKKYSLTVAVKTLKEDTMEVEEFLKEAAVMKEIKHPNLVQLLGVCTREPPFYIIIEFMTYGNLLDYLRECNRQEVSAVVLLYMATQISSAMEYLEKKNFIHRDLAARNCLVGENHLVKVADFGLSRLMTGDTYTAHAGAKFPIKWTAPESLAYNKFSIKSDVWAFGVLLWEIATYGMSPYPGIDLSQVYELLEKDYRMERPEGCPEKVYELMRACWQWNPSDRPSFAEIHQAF
Excerpt: Although the first of these examples uses the kinase domain of a mutant form of Abl T315I (“Abl T315I KD”), the kinase assays may use various forms of mutant and wild type enzymes, including, for example, the entire protein, the kinase domain, or a portion thereof (e.g. Abl Y393F). The kinases used in the assays may also be of varying phosphorylation states. In the c-Abl example, a mutant kinase at a zero phosphorylation state was used.
c-Abl Pyruvate Kinase/Lactate Dehydrogenase Coupled Enzyme Assay
In the c-Abl Pyruvate Kinase (PK)/Lactate Dehydrogenase (LDH) Coupled Assay the protein kinase dependant phosphorylation of a substrate peptide was coupled to the oxidation of NADH. The oxidation of NADH to NAD+ was detected by monitoring a decrease in absorbance at 340 nm.
Materials: Abl substrate peptide=EAIYAAPFAKKK-OH (SEQ ID NO: 1) (Biopeptide, San Diego, Calif.); […]NADH (Sigma Cat#N-8129, FW=709.4); 2M MgCl2; 1M HEPES buffer, pH 7.5; Phosphoenolpyruvate (PEP) (Sigma Cat#P-7002, FW=234); Lactate dehydrogenase (LDH) (Worthington Biochemical Cat#2756); Pyruvate Kinase (PK) (Sigma Cat#P-9136); ATP (Sigma Cat#A-3377, FW=551); Greiner 384-well UV star plate; and purified and unphosphorylated T3151 Abl kinase domain.
Stock Solutions: 10 mM NADH (7.09 mg/ml in miliQH2O) made fresh daily; 10 mM Abl substrate peptide (13.4 mg/ml in miliQH2O) stored at −20° C.; 100 mM HEPES buffer, pH 7.5 (5 ml 1M stock+45 ml miliQH2O); 100mM MgCl2 (5 ml 2M MgCl2+95 ml dH2O); 100 mM PEP (23.4 mg/ml in dH2O) stored at −20° C.; 10mM ATP (5.51 mg/ml in dH2O) stored at −20° C. (diluted 50 μl into total of 10 ml miliQH2O daily=50 μM ATP working stock); 1000 U/ml PK (U/mg varies with lot) flash-frozen under liquid N2 and stored at −80° C.; and 1000 U/ml LDH (U/mg varies with lot) flash-frozen under liquid N2 and stored at −80° C.
Standard Assay Setup for 384-well format (50 μl reaction): 300 μM NADH; 10 mM MgCl2; 2 mM PEP; 45 U/ml PK; 60 U/ml LDH; 200 μM Abl substrate peptide; 2.5 μl test compound (in DMSO); 2 μg/ml Abl kinase domain; 10 μM ATP; 100 mM HEPES buffer. Positive controls contained DMSO with no test compound. Negative controls contained 5 μl of 0.5M EDTA (50 mM in the assay). The dephosphorylated form of the c-Abl T315I mutant was used in the biochemical screening assays. The kinase reaction was initiated at time t=0 by the addition of ATP.
Activity was measured by following the time-dependent loss of NADH by absorbance spectroscopy at 340 nm. The linear portion of the resulting progress curve was then analyzed by linear regression to get the activity in absorbance units/time, reported as the slope of that best fit line (moles/unit time can be calculated from using molar extinction coefficient for NADH at 340 nm, 6250M^−1 cm^−1).
Screening data was evaluated using the equation: Z′=1-[3*(σ++σ−)/|μ+−μ−|] (Zhang, et al., 1999 J Biomol Screening 4(2) 67-73), where μ denotes the mean and σ the standard deviation. The subscript designates positive or negative controls. The Z′ score for a robust screening assay should be ≧0.50. The typical threshold=μ+−3*σ+−. Any value that falls below the threshold was designated a “hit”.
Dose response was analyzed using the equation: y=min+{(max−min)/(1+10^[compound]−logIC50)}, where y is the observed initial slope, max=the slope in the absence of inhibitor, min=the slope at infinite inhibitor, and the IC50 is the [compound] that corresponds to ½ the total observed amplitude (Amplitude=max−min).
To measure modulation, activation, or inhibition of Abl KD, a test compound was added to the assay at a range of concentrations. Inhibitors may inhibit Abl KD activity at an IC50 in the micromolar range, the nanomolar range, or, for example, in the subnanomolar range.
An open-reading frame for c-Abl was amplified from a Mus musculus (mouse) cDNA library prepared from freshly harvested mouse liver using a commercially available kit (Invitrogen) by PCR using the following primers: […]
The c-Abl T3151 KD (kinase domain) was purified as follows. […]

ABL P210WT BAF3 cells = target: T2, ABL P210WT BAF3 cells (Homo sapiens, UniProt P00519); test: 96-well XTT cell survival assay, BaF3 ABL P210WT; type: cell-based; conditions: ABL P210 WT, 72 hours, read-out: CELL BIO ABL P210WT BAF3 XTT (IC50)
T2 construct: ABL P210WT BAF3; fused on or other part: P11274 (Breakpoint cluster region protein)
Description: (§1) MV4-11 and THP cells were maintained in Iscove's Modified Dulbecco's Medium supplemented with 10% fetal bovine serum (FBS) and penicillin/streptomycin, Ba/F3 cells were maintained in RPMI 1640 supplemented with 10% FBS, penicillin/streptomycin and 5 ng/ml recombinant mouse IL-3.
(§2) Compounds were tested in the following assays in duplicate.
(§3) 96-well XTT assay: Cells (e.g. BaF3 315I, M3511, or E255K cells) were grown in growth media containing various concentrations of compounds (duplicates) on a 96-well plate for 72 hours at 37° C. The starting cell number was 5000-8000 cells per well and volume was 120 μl. At the end of the 72-hour incubation, 40 μl of XTT labeling mixture (50:1 solution of sodium 3′-[1-(phenylamino-carbonyl)-3,4-tetrazolium]-bis(4-methoxy-6-nitro) benzene sulfonic acid hydrate and Electron-coupling reagent: PMS (N-methyl dibenzopyrazine methyl sulfate) were added to each well of the plate. After an additional 2-6 hours of incubation at 37° C., the absorbance reading at 405 nm with background correction at 650 nm was measured with a spectrophotometer.

ABL T315I BAF3 cells = target: T3, ABL T315I BAF3 cells (Homo sapiens, UniProt P00519, T315I, cells depend on it); test: 96-well XTT cell survival assay, BaF3 ABL T315I; type: cell-based; conditions: 72 hours, read-out: CELL BIO ABL T315I BAF3 XTT (IC50)
T3 construct: ABL T315I BAF3; fused on or other part: P11274 (Breakpoint cluster region protein)
Description: as §1, §2, §3

Compound | ABL_T315I_0P (IC50) [1] | GI50 (ABL P210WT BAF3 cells) | GI50 (ABL T315I BAF3 cells) | IC50 [1]
CNC(=O)c1cncc(-c2cnc3[nH]cc(-c4ccccc4F)c3c2Cl)c1 [5-[4-Chloro-3-(2-fluoro-phenyl)-1H-pyrrolo[2,3-b]pyridin-5-yl]-N-methyl-nicotinamide] | C (0.1-0.01 μM) | > 1000 nM | > 1000 nM | –
CN(C)C(=O)c1cc(-c2cnc3[nH]cc(-c4cc(F)ccc4Cl)c3c2Cl)cnc1N [2-Amino-5-[4-chloro-3-(2-chloro-5-fluoro-phenyl)-1H-pyrrolo[2,3-b]pyridin-5-yl]-N,N-dimethyl-nicotinamide] | D (<0.01 μM) | 100 to 1000 nM | 100 to 1000 nM | –
OC(c1cncc(-c2cnc3[nH]cc(-c4ccccc4F)c3c2Cl)c1)c1ncccc1F (stereo not drawn) | D (<0.01 μM) | 100 to 1000 nM | 100 to 1000 nM | –
COc1ccccc1-c1n[nH]c2ncc(-c3cncc(C(O)C(=O)N(C)C)c3)c(Cl)c12 (stereo not drawn) [2-{5-[4-Chloro-3-(2-methoxy-phenyl)-1H-pyrazolo[3,4-b]pyridin-5-yl]-pyridin-3-yl}-2-hydroxy-N,N-dimethyl-acetamide] | C (0.1-0.01 μM) | 100 to 1000 nM | 100 to 1000 nM | –
COc1cc(Cl)c(F)cc1-c1c[nH]c2ncc(-c3cnc(N)c(C(=O)N(C)C)c3)cc12 | – | < 10 nM | 10 to 100 nM | < 10 nM
COc1ccccc1-c1c[nH]c2ncc(-c3cnc(N)c(C(=O)N4CCOCC4)c3)c(Cl)c12 [{2-Amino-5-[4-chloro-3-(2-methoxy-phenyl)-1H-pyrrolo[2,3-b]pyridin-5-yl]-pyridin-3-yl}-morpholin-4-yl-methanone] | D (<0.01 μM) | 100 to 1000 nM | 100 to 1000 nM | –
COc1cc(F)ccc1-c1c[nH]c2ncc(-c3cnc(N)c(C(=O)N(C)C)c3)c(Cl)c12 [2-Amino-5-[4-chloro-3-(4-fluoro-2-methoxy-phenyl)-1H-pyrrolo[2,3-b]pyridin-5-yl]-N,N-dimethyl-nicotinamide] | D (<0.01 μM) | 10 to 100 nM | 10 to 100 nM | –
COc1ccccc1-c1c[nH]c2ncc(-c3cncc(C(O)C(=O)N(C)C)c3)c(C)c12 (stereo not drawn) [2-Hydroxy-2-{5-[3-(2-methoxy-phenyl)-4-methyl-1H-pyrrolo[2,3-b]pyridin-5-yl]-pyridin-3-yl}-N,N-dimethyl-acetamide] | D (<0.01 μM) | 10 to 100 nM | 10 to 100 nM | –
CNc1ncccc1-c1c[nH]c2ncc(-c3cncc(C(O)C(=O)N(C)C)c3)c(Cl)c12 (stereo not drawn) | C (0.1-0.01 μM) | > 1000 nM | > 1000 nM | –
Nc1ncc(-c2cnc3[nH]cc(-c4cccc(F)c4)c3c2Cl)cc1C(=O)N1CCCC1CO (stereo not drawn) [{2-Amino-5-[4-chloro-3-(3-fluoro-phenyl)-1H-pyrrolo[2,3-b]pyridin-5-yl]-pyridin-3-yl}-(2-hydroxymethyl-pyrrolidin-1-yl)-methanone] | D (<0.01 μM) | 100 to 1000 nM | 100 to 1000 nM | –
CNc1c(Br)cnc2[nH]cc(-c3ccccc3OC)c12 [[5-Bromo-3-(2-methoxy-phenyl)-1H-pyrrolo[2,3-b]pyridin-4-yl]-methyl-amine] | C (0.1-0.01 μM) | > 1000 nM | > 1000 nM | –
CN(C)C(=O)C(O)c1cncc(-c2cnc3[nH]cc(-c4ccccc4)c3c2Cl)c1 (stereo not drawn) [2-[5-(4-Chloro-3-phenyl-1H-pyrrolo[2,3-b]pyridin-5-yl)-pyridin-3-yl]-2-hydroxy-N,N-dimethyl-acetamide] | D (<0.01 μM) | 100 to 1000 nM | 100 to 1000 nM | –
Nc1ncc(-c2cnc3[nH]cc(-c4cccc(F)c4)c3c2Cl)cc1C(=O)N1CCOCC1 [{2-Amino-5-[4-chloro-3-(3-fluoro-phenyl)-1H-pyrrolo[2,3-b]pyridin-5-yl]-pyridin-3-yl}-morpholin-4-yl-methanone] | D (<0.01 μM) | 10 to 100 nM | 10 to 100 nM | –
COc1ccc(F)cc1-c1c[nH]c2ncc(-c3cnc(N)c(C(=O)N(C)C)n3)c(Cl)c12 [3-amino-6-[4-chloro-3-(5-fluoro-2-methoxy-phenyl)-1H-pyrrolo[2,3-b]pyridin-5-yl]-pyrazine-2-carboxylic acid dimethylamide] | D (<0.01 μM) | < 10 nM | 10 to 100 nM | –
COc1ccccc1-c1c[nH]c2ncc(-c3cncc(C(=O)C(=O)N(C)C)c3)c(OC)c12 [2-{5-[4-Methoxy-3-(2-methoxy-phenyl)-1H-pyrrolo[2,3-b]pyridin-5-yl]-pyridin-3-yl}-N,N-dimethyl-2-oxo-acetamide] | D (<0.01 μM) | 100 to 1000 nM | 10 to 100 nM | –
Nc1ncc(-c2cnc3[nH]cc(-c4cc(F)ccc4F)c3c2Cl)cc1C(=O)N1CCOCC1 [{2-Amino-5-[4-chloro-3-(2,5-difluoro-phenyl)-1H-pyrrolo[2,3-b]pyridin-5-yl]-pyridin-3-yl}-morpholin-4-yl-methanone] | D (<0.01 μM) | 100 to 1000 nM | 100 to 1000 nM | –
CN(C)C(=O)c1cc(-c2cnc3[nH]cc(-c4ccccc4F)c3c2Cl)cnc1N [2-Amino-5-[4-chloro-3-(2-fluoro-phenyl)-1H-pyrrolo[2,3-b]pyridin-5-yl]-N,N-dimethyl-nicotinamide] | D (<0.01 μM) | 100 to 1000 nM | 100 to 1000 nM | –
